# How the values were obtained:
# Conditions in all cases: exposure window: 6 hpf to 120 hpf, static, assay age: 120 hpf (5 dpf)
# [1] = tested on: Danio rerio larvae (Tropical 5D); assay: mean angular velocity of exposed larvae, dark phase (angular velocity (unit not stated)); higher = more movement
# Experimental: (§1)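 Larval photomotor response in Tropical 5D wild-type zebrafish. Larvae were statically exposed to each chemical from 6 hpf to 5 dpf in 96-well plates; morphologically abnormal larvae were excluded. At 120 hpf, larvae were tracked with Ethovision XT (25 frames/s) over the 2nd cycle of 3 min light and 3 min dark. Values are the mean movement metric of exposed larvae per phase; same-plate control means (plate-dependent baseline) are given as conditions.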
# [2] = tested on: Danio rerio larvae (Tropical 5D); assay: mean distance moved of exposed larvae, light phase (µm per frame (1/25 s)); higher = more movement
# Experimental: as §1
# [3] = tested on: Danio rerio larvae (Tropical 5D); assay: mean angular velocity of exposed larvae, light phase (angular velocity (unit not stated)); higher = more movement
# Experimental: as §1
# [4] = tested on: Danio rerio larvae (Tropical 5D); assay: mean distance moved of exposed larvae, dark phase (µm per frame (1/25 s)); higher = more movement
# Experimental: as §1
compound,measurement,setting,value
CC[C@H](C)[C@H]1O[C@]2(C=C[C@@H]1C)C[C@@H]1C[C@@H](C/C=C(\C)[C@@H](O[C@H]3C[C@H](OC)[C@@H](O[C@H]4C[C@H](OC)[C@@H](O)[C@H](C)O4)[C@H](C)O3)[C@@H](C)/C=C/C=C3\CO[C@@H]4[C@H](O)C(C)=C[C@@H](C(=O)O1)[C@]34O)O2.CO[C@H]1C[C@H](O[C@H]2[C@H](C)O[C@@H](O[C@@H]3/C(C)=C/C[C@@H]4C[C@@H](C[C@]5(C=C[C@H](C)[C@@H](C(C)C)O5)O4)OC(=O)[C@@H]4C=C(C)[C@@H](O)[C@H]5OC/C(=C\C=C\[C@@H]3C)[C@]54O)C[C@@H]2OC)O[C@@H](C)[C@@H]1O [Abamectin],mean angular velocity of exposed larvae,[1]; 0.1 µM,0.434
same,mean angular velocity of exposed larvae,[1]; 0.2 µM,0.554
same,mean angular velocity of exposed larvae,[1]; 0.4 µM,0.283
same,mean angular velocity of exposed larvae,[1]; 0.5 µM,0.124
same,mean angular velocity of exposed larvae,[1]; 0.6 µM,0.0798
same,mean angular velocity of exposed larvae,[1]; 0.8 µM,0.0985
same,mean distance moved of exposed larvae,[2]; 0.1 µM,2.76
same,mean distance moved of exposed larvae,[2]; 0.2 µM,5.62
same,mean distance moved of exposed larvae,[2]; 0.4 µM,2.25
same,mean distance moved of exposed larvae,[2]; 0.5 µM,2.39
same,mean distance moved of exposed larvae,[2]; 0.6 µM,1.04
same,mean distance moved of exposed larvae,[2]; 0.8 µM,0.0237
same,mean angular velocity of exposed larvae,[3]; 0.1 µM,0.111
same,mean angular velocity of exposed larvae,[3]; 0.2 µM,0.19
same,mean angular velocity of exposed larvae,[3]; 0.4 µM,0.173
same,mean angular velocity of exposed larvae,[3]; 0.5 µM,0.0668
same,mean angular velocity of exposed larvae,[3]; 0.6 µM,0.0447
same,mean angular velocity of exposed larvae,[3]; 0.8 µM,0.00094
same,mean distance moved of exposed larvae,[4]; 0.1 µM,11.5
same,mean distance moved of exposed larvae,[4]; 0.2 µM,14.8
same,mean distance moved of exposed larvae,[4]; 0.4 µM,7.04
same,mean distance moved of exposed larvae,[4]; 0.5 µM,3.9
same,mean distance moved of exposed larvae,[4]; 0.6 µM,2.89
same,mean distance moved of exposed larvae,[4]; 0.8 µM,3.08
CN1C(=O)CN=C(c2ccccc2)c2cc(Cl)ccc21 [Diazepam],mean angular velocity of exposed larvae,[1]; 1 µM,1.05
same,mean angular velocity of exposed larvae,[1]; 3 µM,1.06
same,mean angular velocity of exposed larvae,[1]; 5 µM,1.17
same,mean angular velocity of exposed larvae,[1]; 8 µM,0.786
same,mean angular velocity of exposed larvae,[1]; 12 µM,0.733
same,mean distance moved of exposed larvae,[2]; 1 µM,10.9
same,mean distance moved of exposed larvae,[2]; 3 µM,7.88
same,mean distance moved of exposed larvae,[2]; 5 µM,7.53
same,mean distance moved of exposed larvae,[2]; 8 µM,10
same,mean distance moved of exposed larvae,[2]; 12 µM,11
same,mean angular velocity of exposed larvae,[3]; 1 µM,0.379
same,mean angular velocity of exposed larvae,[3]; 3 µM,0.422
same,mean angular velocity of exposed larvae,[3]; 5 µM,0.41
same,mean angular velocity of exposed larvae,[3]; 8 µM,0.389
same,mean angular velocity of exposed larvae,[3]; 12 µM,0.456
same,mean distance moved of exposed larvae,[4]; 1 µM,22.5
same,mean distance moved of exposed larvae,[4]; 3 µM,22.7
same,mean distance moved of exposed larvae,[4]; 5 µM,21.5
same,mean distance moved of exposed larvae,[4]; 8 µM,17.3
same,mean distance moved of exposed larvae,[4]; 12 µM,17
c1ccc2c(c1)c1cccc3c4ccccc4c4cccc2c4c13 [Dibenzo[e-l]pyrene],mean angular velocity of exposed larvae,[1]; 0.01 µM,0.665
same,mean angular velocity of exposed larvae,[1]; 0.025 µM,0.598
same,mean angular velocity of exposed larvae,[1]; 0.065 µM,0.644
same,mean angular velocity of exposed larvae,[1]; 0.164 µM,0.681
same,mean angular velocity of exposed larvae,[1]; 0.35 µM,0.693
same,mean angular velocity of exposed larvae,[1]; 0.75 µM,0.704
same,mean angular velocity of exposed larvae,[1]; 1 µM,0.415
same,mean angular velocity of exposed larvae,[1]; 2.54 µM,0.428
same,mean angular velocity of exposed larvae,[1]; 6.45 µM,0.349
same,mean angular velocity of exposed larvae,[1]; 16.4 µM,0.245
same,mean angular velocity of exposed larvae,[1]; 35 µM,0.503
same,mean angular velocity of exposed larvae,[1]; 74.8 µM,0.384
same,mean angular velocity of exposed larvae,[1]; 100 µM,0.353
same,mean distance moved of exposed larvae,[2]; 0.01 µM,7.75
same,mean distance moved of exposed larvae,[2]; 0.025 µM,6.96
same,mean distance moved of exposed larvae,[2]; 0.065 µM,6.48
same,mean distance moved of exposed larvae,[2]; 0.164 µM,8.06
same,mean distance moved of exposed larvae,[2]; 0.35 µM,7.37
same,mean distance moved of exposed larvae,[2]; 0.75 µM,6.8
same,mean distance moved of exposed larvae,[2]; 1 µM,4.47
same,mean distance moved of exposed larvae,[2]; 2.54 µM,2.56
same,mean distance moved of exposed larvae,[2]; 6.45 µM,1.7
same,mean distance moved of exposed larvae,[2]; 16.4 µM,1.99
same,mean distance moved of exposed larvae,[2]; 35 µM,1.66
same,mean distance moved of exposed larvae,[2]; 74.8 µM,1.63
same,mean distance moved of exposed larvae,[2]; 100 µM,3.03
same,mean angular velocity of exposed larvae,[3]; 0.01 µM,0.217
same,mean angular velocity of exposed larvae,[3]; 0.025 µM,0.129
same,mean angular velocity of exposed larvae,[3]; 0.065 µM,0.194
same,mean angular velocity of exposed larvae,[3]; 0.164 µM,0.187
same,mean angular velocity of exposed larvae,[3]; 0.35 µM,0.147
same,mean angular velocity of exposed larvae,[3]; 0.75 µM,0.138
same,mean angular velocity of exposed larvae,[3]; 1 µM,0.119
same,mean angular velocity of exposed larvae,[3]; 2.54 µM,0.113
same,mean angular velocity of exposed larvae,[3]; 6.45 µM,0.0734
same,mean angular velocity of exposed larvae,[3]; 16.4 µM,0.0678
same,mean angular velocity of exposed larvae,[3]; 35 µM,0.0716
same,mean angular velocity of exposed larvae,[3]; 74.8 µM,0.0555
same,mean angular velocity of exposed larvae,[3]; 100 µM,0.0996
same,mean distance moved of exposed larvae,[4]; 0.01 µM,23.6
same,mean distance moved of exposed larvae,[4]; 0.025 µM,22.4
same,mean distance moved of exposed larvae,[4]; 0.065 µM,24.7
same,mean distance moved of exposed larvae,[4]; 0.164 µM,22.8
same,mean distance moved of exposed larvae,[4]; 0.35 µM,25.3
same,mean distance moved of exposed larvae,[4]; 0.75 µM,26.3
same,mean distance moved of exposed larvae,[4]; 1 µM,13.5
same,mean distance moved of exposed larvae,[4]; 2.54 µM,10.8
same,mean distance moved of exposed larvae,[4]; 6.45 µM,9.33
same,mean distance moved of exposed larvae,[4]; 16.4 µM,8.16
same,mean distance moved of exposed larvae,[4]; 35 µM,12
same,mean distance moved of exposed larvae,[4]; 74.8 µM,9.85
same,mean distance moved of exposed larvae,[4]; 100 µM,9.64
CCN(CC(=O)O)S(=O)(=O)C(F)(F)C(F)(F)C(F)(F)C(F)(F)C(F)(F)C(F)(F)C(F)(F)C(F)(F)F [N-ethylperfluoro-1-octanesulfonamidoacetic acid],mean angular velocity of exposed larvae,[1]; 0.25 µM,0.335
same,mean distance moved of exposed larvae,[2]; 0.25 µM,1.44
same,mean angular velocity of exposed larvae,[3]; 0.25 µM,0.0592
same,mean distance moved of exposed larvae,[4]; 0.25 µM,8.83
CN(CC(=O)O)S(=O)(=O)C(F)(F)C(F)(F)C(F)(F)C(F)(F)C(F)(F)C(F)(F)C(F)(F)C(F)(F)F [N-methylperfluoro-1-octanesulfonamidoacetic acid],mean angular velocity of exposed larvae,[1]; 0.25 µM,0.256
same,mean distance moved of exposed larvae,[2]; 0.25 µM,1.43
same,mean angular velocity of exposed larvae,[3]; 0.25 µM,0.0567
same,mean distance moved of exposed larvae,[4]; 0.25 µM,6.38
NC(=O)C(F)(F)C(F)(F)C(F)(F)C(F)(F)F [Nonafluoropentanamide],mean angular velocity of exposed larvae,[1]; 0.015 µM,0.911
same,mean angular velocity of exposed larvae,[1]; 0.046 µM,1.03
same,mean angular velocity of exposed larvae,[1]; 0.14 µM,0.788
same,mean angular velocity of exposed larvae,[1]; 0.41 µM,0.731
same,mean angular velocity of exposed larvae,[1]; 1.23 µM,0.649
same,mean angular velocity of exposed larvae,[1]; 3.7 µM,0.476
same,mean angular velocity of exposed larvae,[1]; 11.1 µM,0.903
same,mean angular velocity of exposed larvae,[1]; 33.3 µM,0.989
same,mean angular velocity of exposed larvae,[1]; 66.5 µM,0.804
same,mean angular velocity of exposed larvae,[1]; 100 µM,0.714
same,mean distance moved of exposed larvae,[2]; 0.015 µM,2.24
same,mean distance moved of exposed larvae,[2]; 0.046 µM,4.1
same,mean distance moved of exposed larvae,[2]; 0.14 µM,3.32
same,mean distance moved of exposed larvae,[2]; 0.41 µM,2.83
same,mean distance moved of exposed larvae,[2]; 1.23 µM,1.91
same,mean distance moved of exposed larvae,[2]; 3.7 µM,2.44
same,mean distance moved of exposed larvae,[2]; 11.1 µM,3.86
same,mean distance moved of exposed larvae,[2]; 33.3 µM,2.5
same,mean distance moved of exposed larvae,[2]; 66.5 µM,2.36
same,mean distance moved of exposed larvae,[2]; 100 µM,2.76
same,mean angular velocity of exposed larvae,[3]; 0.015 µM,0.107
same,mean angular velocity of exposed larvae,[3]; 0.046 µM,0.153
same,mean angular velocity of exposed larvae,[3]; 0.14 µM,0.163
same,mean angular velocity of exposed larvae,[3]; 0.41 µM,0.0614
same,mean angular velocity of exposed larvae,[3]; 1.23 µM,0.124
same,mean angular velocity of exposed larvae,[3]; 3.7 µM,0.0715
same,mean angular velocity of exposed larvae,[3]; 11.1 µM,0.078
same,mean angular velocity of exposed larvae,[3]; 33.3 µM,0.103
same,mean angular velocity of exposed larvae,[3]; 66.5 µM,0.0723
same,mean angular velocity of exposed larvae,[3]; 100 µM,0.107
same,mean distance moved of exposed larvae,[4]; 0.015 µM,25.4
same,mean distance moved of exposed larvae,[4]; 0.046 µM,26.1
same,mean distance moved of exposed larvae,[4]; 0.14 µM,19.4
same,mean distance moved of exposed larvae,[4]; 0.41 µM,25.8
same,mean distance moved of exposed larvae,[4]; 1.23 µM,17.3
same,mean distance moved of exposed larvae,[4]; 3.7 µM,12.1
same,mean distance moved of exposed larvae,[4]; 11.1 µM,23.9
same,mean distance moved of exposed larvae,[4]; 33.3 µM,26.5
same,mean distance moved of exposed larvae,[4]; 66.5 µM,18.1
same,mean distance moved of exposed larvae,[4]; 100 µM,19.5
O=C(O)C(F)(F)C(F)(F)C(F)(F)C(F)(F)C(F)(F)C(F)(F)C(F)(F)C(F)(F)C(F)(F)C(F)(F)C(F)(F)C(F)(F)C(F)(F)C(F)(F)C(F)(F)F [Perfluoro-n-hexadecanoic acid],mean angular velocity of exposed larvae,[1]; 0.25 µM,0.833
same,mean distance moved of exposed larvae,[2]; 0.25 µM,6.65
same,mean angular velocity of exposed larvae,[3]; 0.25 µM,0.178
same,mean distance moved of exposed larvae,[4]; 0.25 µM,27.2

# — the supplement of paper PMC11414989
